Our source for the Ki values is publication PMC9518259, “Design and synthesis of benzothiazole-based SLC-0111 analogues as new inhibitors for the cancer-associated carbonic anhydrase isoforms IX and XII” (Journal of Enzyme Inhibition and Medicinal Chemistry, 2022).

Where two headings read alike, the source gives them in different places.

One assay deals with T1, hCA I (Homo sapiens, UniProt P00915).
T1 construct: gene CA1
Nature of the assay: stopped-flow CO2 hydrase assay. Type of assay: biochemical. The text has this: stopped-flow CO2 hydrase assay on hCA I

The target of the next assay is T2, hCA IX (Homo sapiens, UniProt Q16790).
T2 construct: gene CA9
Nature of the assay: stopped-flow CO2 hydrase assay. Format: biochemical.

In a further assay the target is T3, hCA II (Homo sapiens, UniProt P00918).
T3 construct: gene CA2
Nature of the assay: stopped-flow CO2 hydrase assay. Type of assay: biochemical. The text has this:
stopped-flow CO2 hydrase assay on hCA II

The target in another assay is T4, hCA XII (Homo sapiens, UniProt O43570).
T4 construct: gene CA12
Nature of the assay: stopped-flow CO2 hydrase assay. Format: biochemical.

Assay [1] can be described thus: stopped-flow CO2 hydrase assay. Type of assay: biochemical, Homo sapiens. The conditions noted are these: read-out: KI (nM)^a / hCA I.
Assay [2] is described as follows: stopped-flow CO2 hydrase assay. Type of assay: biochemical, Homo sapiens. The conditions noted are these: read-out: KI (nM)^a / hCA I. The source holds these as a separate data set.

T4 sequence (O43570 25-354): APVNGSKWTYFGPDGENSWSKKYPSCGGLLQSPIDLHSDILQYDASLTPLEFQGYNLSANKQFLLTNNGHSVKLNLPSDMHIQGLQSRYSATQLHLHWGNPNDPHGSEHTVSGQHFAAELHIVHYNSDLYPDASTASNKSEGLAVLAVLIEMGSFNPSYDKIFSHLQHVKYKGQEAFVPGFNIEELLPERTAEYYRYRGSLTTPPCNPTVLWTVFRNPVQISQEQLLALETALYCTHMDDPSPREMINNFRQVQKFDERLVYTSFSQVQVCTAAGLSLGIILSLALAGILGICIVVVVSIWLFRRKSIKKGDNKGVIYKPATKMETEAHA
T1 sequence (P00915 2-261): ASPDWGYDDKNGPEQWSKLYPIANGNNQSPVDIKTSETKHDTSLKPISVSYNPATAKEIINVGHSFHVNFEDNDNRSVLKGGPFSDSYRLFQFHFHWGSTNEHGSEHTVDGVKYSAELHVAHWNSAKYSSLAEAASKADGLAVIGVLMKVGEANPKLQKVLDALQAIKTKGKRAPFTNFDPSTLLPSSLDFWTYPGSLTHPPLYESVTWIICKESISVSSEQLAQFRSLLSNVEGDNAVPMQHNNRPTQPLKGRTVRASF

`NS(=O)(=O)c1ccccc1NC(=O)Nc1nc2ccccc2s1` [8a]: the Ki at hCA I worked out at 12600 nM; on hCA IX (read-out: KI (nM)^a / hCA IX), 65.3 nM; on hCA II, 785 nM; at hCA XII it was 41.2 nM.

Turning to `NS(=O)(=O)c1cccc(NC(=O)Nc2nc3ccccc3s2)c1` [8b], the Ki came out at 4040 nM on hCA I, 48.9 nM at hCA IX (read-out: KI (nM)^a / hCA IX), 653 nM at hCA II and 57.5 nM on hCA XII.

Regarding `NS(=O)(=O)c1ccc(NC(=O)Nc2nc3ccccc3s2)cc1` [8c], the Ki worked out at 362 nM on hCA I, 31.5 nM at hCA IX (read-out: KI (nM)^a / hCA IX), 54.1 nM on hCA II and 29.3 nM on hCA XII.

As to `O=C(Nc1nc2ccccc2s1)Nc1ccccc1C(=O)O` [14a], the Ki at hCA I was 68100 nM; on hCA IX (read-out: KI (nM)^a / hCA IX), 44600 nM; at hCA II, 75900 nM; on hCA XII, 39900 nM.

In the case of `O=C(Nc1cccc(C(=O)O)c1)Nc1nc2ccccc2s1` [14b], the Ki at hCA I turned out to be 82800 nM; at hCA IX (read-out: KI (nM)^a / hCA IX) it was 16300 nM; on hCA II, 94100 nM; on hCA XII it was 9140 nM.

Turning to `O=C(Nc1ccc(C(=O)O)cc1)Nc1nc2ccccc2s1` [14c], the Ki on hCA I was found to be 11800 nM; on hCA IX (read-out: KI (nM)^a / hCA IX), 2410 nM; at hCA II, 9470 nM; at hCA XII, 8540 nM.

Take `O=C(Nc1ccc(S(=O)(=O)Nc2nccs2)cc1)Nc1nc2ccccc2s1` [16a]: the Ki on hCA I was more than 100000 nM; at hCA IX (read-out: KI (nM)^a / hCA IX), 56100 nM; on hCA XII it was 32500 nM; in assay [1], more than 100000 nM.

`Cc1noc(NS(=O)(=O)c2ccc(NC(=O)Nc3nc4ccccc4s3)cc2)c1C` [16b]: the Ki (at hCA I; on hCA IX (read-out: KI (nM)^a / hCA I); in assay [2]; in assay [1]) was more than 100000 nM each time.

For the molecule `NS(=O)(=O)c1ccc(CNC(=O)Nc2nc3ccccc3s2)cc1` [compound 10, 10], the Ki on hCA I worked out at 946 nM; at hCA IX (read-out: KI (nM)^a / hCA IX), 58.8 nM; at hCA II, 204 nM; on hCA XII it was 51.2 nM.

`NS(=O)(=O)c1ccc(CCNC(=O)Nc2nc3ccccc3s2)cc1` [compound 12, 12]: the Ki on hCA I is 61.5 nM; on hCA IX (read-out: KI (nM)^a / hCA IX) it was 16.4 nM; at hCA II, 28.5 nM; on hCA XII, 34.7 nM.
